Measured values reported in patent US10150793B2, “Antagonists of CB1 receptor” (INSERM (Institut National de la Santé et de la Recherche …, priority 2011, dated 2018).

Assays:
CB1 receptor [1] = biological target: CB1 receptor (Mus musculus, UniProt P47746); test: THC-induced cannabinoid tetrad (body temperature, locomotor activity, catalepsy, analgesia); format: in vivo, mice; set-up: tissue Charles River Laboratories (France) (animals); host or cells: living mice, whole animal
[2] = Plasmatic levels of pregnenolone and allopregnanolone after subcutaneous injection or Alzet minipumps; format: in vivo, mice
Procedure: Micro-osmotic pumps (Alzet Osmotis Pumps, Charles River, France) with a pump rate of 0.15 μl/hr (model 2006) were filled with pregnenolone dissolved in PEG300 (85%) and ethanol (15%) at a concentration of 125 or 250 mg/ml (corresponding respectively to a daily dose of 12 or 24 mg/kg body weight) and implanted subcutaneously after light anesthesia. All pumps were primed by soaking them in saline at 37° C. for 60 h before implantation.
The effects of pregnenolone administration on plasmatic levels of pregnenolone were compared (n=5 per group) when pregnenolone was administered subcutaneously (6 mg/kg) or by Alzet micro-osmotic pumps (Alzet Osmotis Pumps, Charles River, France, model 2006) that simulate an extended release formulations of pregnenolone. Thus, these mini pump implanted subcutaneously provide a steady release of pregnenolone. Two pregneolone concentrations were used 0.6 mg/kg/hour and 1 mg/kg/hour (10 times and six times lower than the dose administered subcutaneously). […] The half life of pregnenolone administered subcutaneously was quite short (half an hour) and the increase in allopregnanolone was maintained over one hour (FIG. 20). […] Also pregnenolone levels remained in the range of effective therapeutic doses over two weeks.

[3] = Brain steroid levels after pregnenolone injections; format: in vivo, C57B1/6 mice; conditions: pregnenolone injections between 2 and 8 mg/kg
Procedure: Data are expressed as mean±SEM (n=7-8 per group). *=P<0.05, ***=P<0.001 compared to vehicle-treated animals (PREG 0 mg/kg).
In this example the inventors studied the effects of the doses of pregnenolone (between 2 and 8 mg/kg) that were able to inhibit the effects of CB1 activation in mice.

GABA-A receptors = test: GABA-A receptors-mediated mIPSC in nucleus accumbens principal neurons; format: cell-based, mouse
Procedure: GABA-A receptors-mediated currents: mIPSC were recorded in the presence of the AMPAR and NMDAR antagonists (DNQX 20 μM and AP-5 50 μM, respectably). mEPSC-mIPSC analysis: Typically, after breaking in, cells were left to equilibrate for 20 minutes and the subsequent 10 minutes recording of mEPSC-mIPSC was used to analysis. mEPSC-mIPSC were detected using a template generated from averaging several typical events (Clampfit 10, Molecular Devices). The template was slid along the data trace one point at a time. At each position, the template was optimally scaled and offset to fit the data. A lower-amplitude threshold of 7 pA and 10 pA were applied for mEPSC and mIPSC, respectably, equivalent to 2.5SD of baseline noise. For each cell, the kinetics of mEPSC-mIPSC was measured from the average event using Clampfit 10. To estimate decay times, a two exponentials curve was fitted between 5 and 95% of the decay phase of the current given by the following equation: y(t)=A1·e^(−t/τ1)+A2·e^(−t/τ2), where A is the amplitude, t is the time and τ is the decay time constant. The weighted tau was then calculated.
In order to evaluate the effect of pregnenolone on the function of post-synaptic GABA we recorded mIPSC and compared its amplitude and decay time between groups. We observed that mIPSC amplitude and decay time were similar between controls (amplitude: 17.9±0.8 pA; decay time: 11.1±0.3 ms) and slices pre-treated with pregnenolone (100 nM and 1 μM, respectively; amplitude: 17.3±0.4 pA, 15.9±0.4 pA; decay time: 10.2±0.4 ms, 10.8±0.5 ms).

CB1 receptor [4] = biological target: CB1 receptor (Rattus norvegicus, UniProt P20272); test: THC-induced increase in food intake in ad libitum fed Wistar rats; format: in vivo; set-up: tissue Charles River Laboratories (France) (animals); host or cells: living Wistar rats, whole animal
Sequence of CB1 receptor (Rattus norvegicus, UniProt P20272) (P20272 whole entry): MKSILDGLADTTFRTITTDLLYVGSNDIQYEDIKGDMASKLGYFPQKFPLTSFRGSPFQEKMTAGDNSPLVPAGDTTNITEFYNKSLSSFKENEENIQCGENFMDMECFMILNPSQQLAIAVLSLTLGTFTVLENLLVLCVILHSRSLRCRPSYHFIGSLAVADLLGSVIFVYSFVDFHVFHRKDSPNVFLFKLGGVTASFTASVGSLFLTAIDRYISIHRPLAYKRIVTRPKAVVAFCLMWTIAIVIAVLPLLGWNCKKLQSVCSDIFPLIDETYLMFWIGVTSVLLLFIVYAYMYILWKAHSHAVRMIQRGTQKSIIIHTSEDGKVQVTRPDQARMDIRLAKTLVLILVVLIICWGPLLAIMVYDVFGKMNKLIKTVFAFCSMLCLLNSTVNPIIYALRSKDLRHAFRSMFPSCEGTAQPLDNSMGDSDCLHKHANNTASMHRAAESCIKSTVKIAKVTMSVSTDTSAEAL
Procedure: Food intake was evaluated by measuring consumption of food in the home cages of the animals. For each animal, 50-100 g of standard laboratory chow (U.A.R., France) was placed in the cleaned home cage. The remaining amount of food was weighted 1 h later and the amount of food consumed calculated.

AMPA receptors = test: AMPAR-mediated mEPSC in nucleus accumbens principal neurons; format: cell-based, mouse; conditions: pregnenolone 100 nM treated slices
[5] = Alzet minipump at 0.6 mg/kg/hour

Sequence of CB1 receptor (Mus musculus, UniProt P47746) (P47746 whole entry): as the sequence (P20272 whole entry) above, with E95D counted along it

CC(=O)[C@H]1CC[C@H]2[C@@H]3CC=C4C[C@@H](O)CC[C@]4(C)[C@H]3CC[C@]12C [Pregnenolone, 5-Pregnen-3β-ol-20-one]
effect on THC-induced cannabinoid tetrad (CB1 receptor [1]; pregnenolone 6 mg/kg before THC, absence of AMG): decreased all the behaviours of the THC-induced cannabinoid tetrad
effect on the AMG enhancement of THC behavioural effects (CB1 receptor [1]; pregnenolone 6 mg/kg, AMG 50 mg/kg, THC 10 mg/kg): completely reversed
effect on locomotor activity, body temperature, catalepsy and pain threshold in the absence of THC (CB1 receptor [1]; pregnenolone per se): had no effect
plasma allopregnanolone [2, 5]: did not increased allopregnanolone
plasmatic pregnenolone [2, 5]: increased in the range of the maximum increase observed after the subcutaneous injection
plasma allopregnanolone ([2]; Alzet minipump at 1 mg/kg/hour): allopregnanolone did not increase
pregnenolone plasmatic concentrations ([2]; Alzet minipump at 1 mg/kg/hour): at the double of what observed after 6 mg/kg
half life ([2]; administered subcutaneously): half an hour
half-life ([2]; mouse, in vivo): approximately 30 min
plasma allopregnanolone ([2]; pregnenolone subcutaneously at 6 mg/kg): induced an increase in allopregnanolone
duration of the increase in pregnenolone levels ([2]; subcutaneous injection): < 1 h
plasmatic levels of pregnenolone ([2]; subcutaneously at 6 mg/kg): around 100 ng/ml
brain concentrations of downstream metabolites (epiallopregnanolone, allopregnanolone) [3]: did not modify the concentrations of downstream metabolites
brain levels of pregnenolone [3]: increased brain levels of pregnenolone
mIPSC amplitude (GABA-A receptors; slices pre-treated with 100 nM): 17.3±0.4 pA
mIPSC decay time (GABA-A receptors; slices pre-treated with 100 nM): 10.2 ± 0.4 ms
mIPSC amplitude (GABA-A receptors; slices pre-treated with 1 μM): 15.9±0.4 pA
mIPSC decay time (GABA-A receptors; slices pre-treated with 1 μM): 10.8 ± 0.5 ms
effect on THC-induced food intake in sated rats (CB1 receptor [4]; THC 0.5 mg/kg, pregnenolone 30 min before THC): dose-dependently decreased THC-induced food intake
effect on basal food intake (CB1 receptor [4]; pregnenolone 2 mg/kg, FIG. 3 A, B): did not significantly modified basal food intake
dose with statistically significant effect on THC-induced food intake (CB1 receptor [4]; sated rats, THC 0.5 mg/kg): 2 mg/kg
AMPAR-mediated mEPSC amplitude (AMPA receptors): 15.7±0.7 pA
AMPAR-mediated mEPSC decay time (AMPA receptors): 4.62 ± 0.06 ms
